In one test the target is mMC3R (Mus musculus, UniProt P33033). The experiment in a line: Functional bioassay, CRE/β-galactosidase reporter in HEK-293 cells stably expressing mMC3R. The conditions noted are these: for pharmacology in words at mMC3R: slight agonist = some stimulatory response at 100 μM, not enough to determine an EC50.
The next test concerns the target mMC4R (Mus musculus, UniProt P56450). The experiment in a line: Functional bioassay, CRE/β-galactosidase reporter in HEK-293 cells stably expressing mMC4R. The following applies: for pharmacology in words at mMC4R: slight agonist = some stimulatory response at 100 μM, not enough to determine an EC50.
The next test deals with mMC1R (Mus musculus, UniProt Q01727). Kind of test: Functional bioassay, CRE/β-galactosidase reporter in HEK-293 cells stably expressing mMC1R.
Chain of mMC1R (Q01727 whole entry): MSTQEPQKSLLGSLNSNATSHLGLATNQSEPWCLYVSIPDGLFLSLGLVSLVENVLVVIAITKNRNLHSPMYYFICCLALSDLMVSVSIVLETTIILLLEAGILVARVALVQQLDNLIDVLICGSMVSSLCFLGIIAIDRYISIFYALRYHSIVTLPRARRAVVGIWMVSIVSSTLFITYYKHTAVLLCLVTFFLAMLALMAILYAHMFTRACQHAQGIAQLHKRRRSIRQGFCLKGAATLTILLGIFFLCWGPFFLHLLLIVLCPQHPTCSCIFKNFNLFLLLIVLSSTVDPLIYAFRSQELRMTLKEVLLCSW
The next test deals with mMC5R (Mus musculus, UniProt P41149). Kind of test: Functional bioassay, CRE/β-galactosidase reporter in HEK-293 cells stably expressing mMC5R. The following applies: for pharmacology in words at mMC5R: slight agonist = some stimulatory response at 100 μM, not enough to determine an EC50.
Chain of mMC5R (P41149 whole entry): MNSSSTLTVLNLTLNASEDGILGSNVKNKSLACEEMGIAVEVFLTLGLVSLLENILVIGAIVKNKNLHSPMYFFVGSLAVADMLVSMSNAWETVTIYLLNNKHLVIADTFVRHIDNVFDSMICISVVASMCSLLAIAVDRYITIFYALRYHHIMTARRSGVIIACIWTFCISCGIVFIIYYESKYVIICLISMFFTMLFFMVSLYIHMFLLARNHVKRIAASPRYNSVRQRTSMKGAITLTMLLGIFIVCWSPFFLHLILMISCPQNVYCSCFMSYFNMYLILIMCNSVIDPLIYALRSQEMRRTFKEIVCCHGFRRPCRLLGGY

Where a SMILES comes first, the peptide text is derived from it. Bridges are numbered along the chain shown (N, C = ends). [ ]: non-standard residue; d: D form. Nle = CCCC[C@H](N)C(=O)O; Dap = NC[C@H](N)C(=O)O Some results are limits rather than exact numbers.

Chain of mMC3R (P33033 whole entry): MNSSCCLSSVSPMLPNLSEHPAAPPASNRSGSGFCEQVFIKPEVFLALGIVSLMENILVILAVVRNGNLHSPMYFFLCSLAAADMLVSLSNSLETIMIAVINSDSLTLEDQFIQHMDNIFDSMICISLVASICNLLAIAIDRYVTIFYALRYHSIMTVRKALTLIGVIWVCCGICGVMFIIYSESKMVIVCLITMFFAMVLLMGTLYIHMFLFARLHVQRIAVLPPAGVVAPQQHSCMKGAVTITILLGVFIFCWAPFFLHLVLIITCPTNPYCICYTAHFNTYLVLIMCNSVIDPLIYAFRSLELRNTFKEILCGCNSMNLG
Chain of mMC4R (P56450 whole entry): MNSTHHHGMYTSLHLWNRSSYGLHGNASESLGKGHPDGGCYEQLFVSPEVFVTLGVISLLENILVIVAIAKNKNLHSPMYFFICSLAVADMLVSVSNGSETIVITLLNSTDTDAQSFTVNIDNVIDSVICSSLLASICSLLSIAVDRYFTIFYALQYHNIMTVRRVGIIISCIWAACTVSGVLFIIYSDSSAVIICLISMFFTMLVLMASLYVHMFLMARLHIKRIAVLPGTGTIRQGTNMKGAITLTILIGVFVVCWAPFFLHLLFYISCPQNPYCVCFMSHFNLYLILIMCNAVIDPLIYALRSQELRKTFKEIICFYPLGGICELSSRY
Method for mMC1R: (§1) 5,000 to 15,000 post transfection cells were plated into 96 well Primera plates (Falcon) and incubated overnight. […] The assay media was aspirated and 50 μL of lysis buffer (250 mM Tris-HCl pH=8.0 and 0.1% Triton X-100) was added. The plates were stored at −80° overnight.
(§2) The plates containing the cell lysates were thawed the following day. Aliquots of 10 μL were taken from each well and transferred to another 96-well plate for relative protein determination. To the cell lysate plates, 40 μL phosphate-buffered saline with 0.5% BSA was added to each well. Subsequently, 150 μL substrate buffer (60 mM sodium phosphate, 1 mM MgCl2, 10 mM KCl, 5 mM β-mercaptoethanol, 200 mg/100 mL ONPG) was added to each well and the plates were incubated at 37°.
(§3) The sample absorbance, OD405, was measured using a 96 well plate reader (Molecular Devices). The relative protein was determined by adding 200 μL 1:5 dilution Bio Rad G250 protein dye:water to the 10 μL cell lysate sample taken previously, and the OD595 was measured on a 96 well plate reader (Molecular Devices). Data points were normalized both to the relative protein content and non-receptor dependent forskolin stimulation.
(§4) For data analysis, EC50 and pA2 values represent the mean of duplicate experiments performed in triplet, quadruplet or more independent experiments.
Method for mMC3R: as §1, §2, §3, §4
Method for mMC4R: as §1, §2, §3, §4
Method for mMC5R: as §1, §2, §3, §4

One may read the EC50 as the concentration that produces a half-maximal response. A low value points to an effect from little substance. For `C[C@@H]1NC(=O)[C@H](CC(N)=O)NC(=O)[C@@H](Cc2ccccc2)NC(=O)[C@H](Cc2ccccc2)NC(=O)[C@H](CCCNC(=N)N)NC(=O)[C@@H](NC(=O)[C@@H](N)Cc2ccc(O)cc2)CSSC[C@@H](C(=O)N[C@@H](Cc2ccc(O)cc2)C(N)=O)NC(=O)[C@H](Cc2ccccc2)NC1=O` [SEQ ID NO: 1, Tyr-c[Cys-Arg-Phe-DPhe-Asn-Ala-Phe-Cys]-Tyr] (H-YCRF[dF]NAFCY-NH2; disulfide 2-9), on mMC3R, the EC50 is > 100000 nM and the “pharmacology in words at mMC3R” value was “Slight Agonist”. Further, on mMC4R, the Kb was found to be 794 nM and the “pharmacology in words at mMC4R” value was “Partial agonist”.
Take `C[C@@H]1NC(=O)[C@H](C)NC(=O)[C@@H](NC(=O)[C@@H](N)Cc2ccc(O)cc2)CC(=O)NC[C@@H](C(=O)N[C@@H](Cc2ccc(O)cc2)C(N)=O)NC(=O)[C@H](Cc2ccccc2)NC(=O)[C@H](C)NC(=O)[C@H](CC(N)=O)NC(=O)[C@H](C)NC1=O` [SEQ ID NO: 2, Tyr-c[Asp-Ala-Ala-Ala-Asn-Ala-Phe-Dpr]-Tyr] (H-YDAAANAF[Dap]Y-NH2; lactam 2-9): the EC50 at mMC1R, at mMC3R, on mMC5R and at mMC4R was > 100000 nM throughout.
`C[C@@H]1NC(=O)[C@H](CC(N)=O)NC(=O)[C@H](Cc2ccccc2)NC(=O)[C@H](Cc2ccccc2)NC(=O)[C@H](CCCNC(=N)N)NC(=O)[C@@H](NC(=O)[C@@H](N)Cc2ccc(O)cc2)CC(=O)NC[C@@H](C(=O)N[C@@H](Cc2ccc(O)cc2)C(N)=O)NC(=O)[C@H](Cc2ccccc2)NC1=O` [SEQ ID NO: 3, Tyr-c[Asp-Arg-Phe-Phe-Asn-Ala-Phe-Dpr]-Tyr]: the Kb on mMC3R is 2000 nM; at mMC4R, 1260 nM. Moreover, at mMC5R, the 50% effective concentration (EC50) was > 100000 nM. In addition, on mMC4R (compared with hAGRP(109-118)), the “decrease in antagonist potency at mMC4R” value worked out at 8 fold.
As for `C[C@@H]1NC(=O)[C@H](CC(N)=O)NC(=O)[C@H](Cc2ccccc2)NC(=O)[C@H](CCCNC(=N)N)NC(=O)[C@H](Cc2c[nH]c3ccccc23)NC(=O)[C@@H](NC(=O)[C@@H](N)Cc2ccc(O)cc2)CC(=O)NC[C@@H](C(=O)N[C@@H](Cc2ccc(O)cc2)C(N)=O)NC(=O)[C@H](Cc2ccccc2)NC1=O` [SEQ ID NO: 4, Tyr-c[Asp-Trp-Arg-Phe-Asn-AIa-Phe-Dpr]-Tyr] (H-YDWRFNAF[Dap]Y-NH2; lactam 2-9), the 50% effective concentration (EC50) at mMC3R and on mMC5R was > 100000 nM throughout. The “pharmacology in words at mMC4R” value on mMC4R is given as “Partial agonist”.
As to `C[C@@H]1NC(=O)[C@H](CC(N)=O)NC(=O)[C@@H](Cc2ccccc2)NC(=O)[C@H](CCCNC(=N)N)NC(=O)[C@H](Cc2c[nH]c3ccccc23)NC(=O)[C@@H](NC(=O)[C@@H](N)Cc2ccc(O)cc2)CC(=O)NC[C@@H](C(=O)N[C@@H](Cc2ccc(O)cc2)C(N)=O)NC(=O)[C@H](Cc2ccccc2)NC1=O` [SEQ ID NO: 5, Tyr-c[Asp-Trp-Arg-DPhe-Asn-Ala-Phe-Dpr]-Tyr] (H-YDWR[dF]NAF[Dap]Y-NH2; lactam 2-9), the “pharmacology in words at mMC3R” value on mMC3R was “Slight Agonist”.
The same measure, in the same setting: to `C[C@@H]1NC(=O)[C@H](CC(N)=O)NC(=O)[C@H](Cc2c[nH]c3ccccc23)NC(=O)[C@H](CCCNC(=N)N)NC(=O)[C@H](Cc2ccccc2)NC(=O)[C@@H](NC(=O)[C@@H](N)Cc2ccc(O)cc2)CC(=O)NC[C@@H](C(=O)N[C@@H](Cc2ccc(O)cc2)C(N)=O)NC(=O)[C@H](Cc2ccccc2)NC1=O` [SEQ ID NO: 6, Tyr-c[Asp-Phe-Arg-Trp-Asn-Ala-Phe-Dpr]-Tyr] (H-YDFRWNAF[Dap]Y-NH2; lactam 2-9) belongs “Slight agonist”.
For the compound `CCCC[C@H](NC(=O)[C@H](CO)NC(=O)[C@H](Cc1ccc(O)cc1)NC(=O)[C@H](CO)NC(C)=O)C(=O)N[C@@H](Cc1ccc(O)cc1)C(=O)N[C@H]1CC(=O)NC[C@@H](C(=O)N[C@@H](Cc2ccc(O)cc2)C(=O)N[C@@H](CCCCN)C(=O)N2CCC[C@H]2C(=O)N[C@H](C(N)=O)C(C)C)NC(=O)[C@H](Cc2ccccc2)NC(=O)[C@H](C)NC(=O)[C@H](CC(N)=O)NC(=O)[C@H](Cc2ccccc2)NC(=O)[C@H](Cc2ccccc2)NC(=O)[C@H](CCCNC(=N)N)NC1=O` [SEQ ID NO: 11, Ac-Ser-Tyr-Ser-Nle-Tyr-c[Asp-Arg-Phe-Phe-Asn-Ala-Phe-Dpr]-Tyr-Lys-Pro-Val] (Ac-SYS[Nle]YDRFFNAF[Dap]YKPV-NH2; lactam 6-13), the Kb on mMC3R and on mMC4R was 631 nM in each case. Further, the EC50 on mMC5R was > 100000 nM.
Turning to `CCCC[C@H](NC(=O)[C@H](CO)NC(=O)[C@H](Cc1ccc(O)cc1)NC(=O)[C@H](CO)NC(C)=O)C(=O)N[C@@H](CCC(=O)O)C(=O)N[C@@H](Cc1c[nH]cn1)C(=O)N[C@@H](CCCNC(=N)N)C(=O)N[C@@H](Cc1ccccc1)C(=O)N[C@H](Cc1ccccc1)C(=O)NCC(=O)N[C@@H](CCCCN)C(=O)N1CCC[C@H]1C(=O)N[C@H](C(N)=O)C(C)C` [SEQ ID NO: 18, Ac-Ser-Tyr-Ser-Nle-Glu-His-Arg-Phe-DPhe-Gly-Lys-Pro-Val] (Ac-SYS[Nle]EHRF[dF]GKPV-NH2), the EC50 at mMC3R and at mMC4R was > 100000 nM in each case. Moreover, the “pharmacology in words at mMC5R” value on mMC5R is “Slight agonist”.
Regarding `CCCC[C@H](NC(C)=O)C(=O)N[C@H]1CC(=O)NCCCC[C@@H](C(N)=O)NC(=O)[C@@H](Cc2ccccc2)NC(=O)[C@H](Cc2ccccc2)NC(=O)[C@H](CCCNC(=N)N)NC(=O)[C@H](Cc2c[nH]cn2)NC1=O` [SEQ ID NO: 23, Ac-Nle-c[Asp-His-Arg-Phe-DPhe-Lys]] (Ac-[Nle]DHRF[dF]K-NH2; lactam 2-7), at mMC3R, the “pharmacology in words at mMC3R” value is recorded as “Slight agonist”. For the same compound, the “pharmacology in words at mMC5R” value on mMC5R is on record as “Slight agonist”. The concentration giving a half-maximal response (EC50) on mMC4R is > 100000 nM.
As for `C[C@@H]1NC(=O)[C@H](CC(N)=O)NC(=O)[C@H](Cc2c[nH]c3ccccc23)NC(=O)[C@H](CCCNC(=N)N)NC(=O)[C@H](C)NC(=O)[C@H](Cc2c[nH]cn2)NC(=O)[C@@H](NC(=O)[C@@H](N)Cc2ccc(O)cc2)CC(=O)NC[C@@H](C(=O)N[C@@H](Cc2ccc(O)cc2)C(N)=O)NC(=O)[C@H](Cc2ccccc2)NC1=O` [SEQ ID NO: 25], the “pharmacology in words at mMC3R” value on mMC3R was “Partial agonist”.
Turning to `C[C@@H]1NC(=O)[C@H](CC(N)=O)NC(=O)[C@H](Cc2c[nH]c3ccccc23)NC(=O)[C@H](CCCNC(=N)N)NC(=O)[C@@H](Cc2ccccc2)NC(=O)[C@@H]2CCCN2C(=O)[C@@H](NC(=O)[C@@H](N)Cc2ccc(O)cc2)CC(=O)NC[C@@H](C(=O)N[C@@H](Cc2ccc(O)cc2)C(N)=O)NC(=O)[C@H](Cc2ccccc2)NC1=O` [SEQ ID NO: 28, Tyr-c[Asp-Pro-DPhe-Arg-Trp-Asn-Ala-Phe-Dpr]-Tyr] (H-YDP[dF]RWNAF[Dap]Y-NH2; lactam 2-10), on mMC3R, the Kb amounted to 63.1 nM and the “pharmacology in words at mMC3R” value was “Partial agonist”.
On to `C[C@@H]1NC(=O)[C@H](CC(N)=O)NC(=O)[C@H](Cc2c[nH]c3ccccc23)NC(=O)[C@H](CCCNC(=N)N)NC(=O)[C@@H](Cc2ccccc2)NC(=O)[C@H](Cc2ccccc2)NC(=O)[C@@H](NC(=O)[C@@H](N)Cc2ccc(O)cc2)CC(=O)NC[C@@H](C(=O)N[C@@H](Cc2ccc(O)cc2)C(N)=O)NC(=O)[C@H](Cc2ccccc2)NC1=O` [SEQ ID NO: 29, Tyr-c[Asp-Phe-DPhe-Arg-Trp-Asn-Ala-Phe-Dpr]-Tyr] (H-YDF[dF]RWNAF[Dap]Y-NH2; lactam 2-10), for which, on mMC3R, the Kb worked out at 63.1 nM and the “pharmacology in words at mMC3R” value is “Partial agonist”.
At mMC3R, `C[C@@H]1NC(=O)[C@H](CC(N)=O)NC(=O)[C@H](Cc2c[nH]c3ccccc23)NC(=O)[C@H](CCCNC(=N)N)NC(=O)[C@@H](Cc2ccc(I)cc2)NC(=O)[C@H](Cc2c[nH]cn2)NC(=O)[C@@H](NC(=O)[C@@H](N)Cc2ccc(O)cc2)CC(=O)NC[C@@H](C(=O)N[C@@H](Cc2ccc(O)cc2)C(N)=O)NC(=O)[C@H](Cc2ccccc2)NC1=O` [SEQ ID NO: 32, Tyr-c[Asp-His-(pI)DPhe-Arg-Trp-Asn-Ala-Phe-Dpr]-Tyr] returned a Kb of 1.26 nM. Moreover, at mMC4R, the Kb worked out at 0.398 nM and the “pharmacology in words at mMC4R” value is reported as “Partial agonist”.
The matching figures for `C[C@@H]1NC(=O)[C@H](CC(N)=O)NC(=O)[C@H](Cc2c[nH]c3ccccc23)NC(=O)[C@H](CCCNC(=N)N)NC(=O)[C@@H](Cc2ccc3ccccc3c2)NC(=O)[C@H](Cc2c[nH]cn2)NC(=O)[C@@H](NC(=O)[C@@H](N)Cc2ccc(O)cc2)CC(=O)NC[C@@H](C(=O)N[C@@H](Cc2ccc(O)cc2)C(N)=O)NC(=O)[C@H](Cc2ccccc2)NC1=O` [SEQ ID NO: 33, Tyr-c[Asp-His-DNal(2′)-Arg-Trp-Asn-Ala-Phe-Dpr]-Tyr]: 5.01 nM, 0.501 nM and “Partial agonist”.
`C[C@@H]1NC(=O)[C@H](CC(N)=O)NC(=O)[C@H](Cc2c[nH]c3ccccc23)NC(=O)[C@H](CCCNC(=N)N)NC(=O)[C@@H](Cc2cccc3ccccc23)NC(=O)[C@H](Cc2c[nH]cn2)NC(=O)[C@@H](NC(=O)[C@@H](N)Cc2ccc(O)cc2)CC(=O)NC[C@@H](C(=O)N[C@@H](Cc2ccc(O)cc2)C(N)=O)NC(=O)[C@H](Cc2ccccc2)NC1=O` [SEQ ID NO: 34, Tyr-c[Asp-His-DNal(1′)-Arg-Trp-Asn-Ala-Phe-Dpr]-Tyr] had an EC50 at mMC4R of 0.57 ± 0.08 nM.
On the same count and under the same terms, to `C[C@@H]1NC(=O)[C@H](CC(N)=O)NC(=O)[C@H](Cc2c[nH]c3ccccc23)NC(=O)[C@H](CCCNC(=N)N)NC(=O)[C@@H](Cc2ccc(-c3ccccc3)cc2)NC(=O)[C@H](Cc2c[nH]cn2)NC(=O)[C@@H](NC(=O)[C@@H](N)Cc2ccc(O)cc2)CC(=O)NC[C@@H](C(=O)N[C@@H](Cc2ccc(O)cc2)C(N)=O)NC(=O)[C@H](Cc2ccccc2)NC1=O` [SEQ ID NO: 35, Tyr-c[Asp-His-DBip-Arg-Trp-Asn-Ala-Phe-Dpr]-Tyr] belongs 0.57 ± 0.07 nM.

The record behind these values is US7582610B2, “Melanocortin receptor templates, peptides and use thereof” (priority 2003, dated 2009).
